# Measurements: patent US20060069095A1, “Azole derivatives” (priority 2004, published 2006)
# Assays:
# A549-Cell-Xenograft = assay: In vivo assay on tumor inhibition (A549 xenograft); design: species or system mice; conditions: daily dosage of 80 mg/kg, oral, after 23 days of treatment (44 days of experiment), median tumor volume
# Experimental: In vivo Assay on Tumor Inhibition:
# To generate primary tumors, Non-Small-Cell Lung Cancer (NSCLC) (e.g. Calu-3 (ATTC HTB-55) or A549 (ATTC CCL-185)) cells (4-5.0×10^6 in a volume of 100 μl) are injected subcutaneously into the left flank of female SCID beige (Severe Combined Immunodeficient/beige mice available from Charles River, Sulzfeld, Germany) or BALB/c nude (BALB/c Nude Spontaneous Mutant Mice (homozygotes) available from Taconic Europe, Ry, Denmark) mice. The cells are thawed and expanded in vitro before use in the experiment. Mice are assigned to the treatment groups 14-21 days after cell injection. […] The subcutaneous primary tumors are measured twice weekly, starting prior to randomisation, in two dimensions (length and width) using an electronic caliper. The volume of the primary tumor is calculated using the formula: V[mm^3]=(length [mm]×width [mm]×width [mm])/2. In addition, the body weight of all animals is recorded at least twice weekly. […]
# In one example of the above procedure, treatment was started on or about the 20th-21st day of the experiment (after cell injection) and the treatment was carried out for 23 days (about 44 days of experiment). In this example, primary tumor volume was calculated according to NCI protocol (TW=½ ab^2, where a and b were long and short diameters of tumor mass in mm). […] Tumor weight was determined by analytic scale at termination (day 44/45). […]
# A549 cells = assay: MTT assay in A549 cells; format: cell-based, human; conditions: 5 days incubation, 3 μM to 0.15 nM
# Experimental: To further show the activity of the compounds according to this invention, their effects on a […] was evaluated using a standard MTT-assay. MTT (3-(4,5-dimethylthiazol-2-yl)-2,5-diphenyl tetrazolium bromide) is widely used for the quantitative determination of cytotoxic effects or in vitro chemosensitivity of tumor cells. The assay is based on the cleavage of the yellow tetrazolium salt (MTT) to purple formazan crystals by metabolic active cells. For details, see Rubinstein, L. V., et al., J. Natl. Cancer Inst. 82 (1990) 1113-1118.
# A549 cells (human lung carcinoma cell line ATTC-No. CCL-185) were cultivated in RPMI (Roswell Park Memorial Institute) 1640 medium with GlutaMAX™ I (Invitrogen, Cat-No. 61870-010), 2,5% Fetal Calf Serum (FCS, Sigma Cat-No. F4135 (FBS)); 100 Units/ml penicillin/100 μg/ml streptomycin (=Pen/Strep from Invitrogen Cat. No. 15140). For the assay the cells were seeded in 384 well plates, 900 cells per well, in the same medium. The next day compounds (dissolved 10 mM in dimethylsulfoxide (DMSO)) were added in various concentrations ranging from 3 μM to 0.15 nM (10 concentrations, 1:3 diluted). After 5 days MTT assay was done mainly according to the instructions of the manufacturer (Cell proliferation kit I, MTT, from Roche Molecular Biochemicals). In brief: MTT labeling reagent (3-(4,5-dimethylthiazol-2-yl)-2,5-diphenyltetrazolium bromide (MTT)) was added to a final concentration of 0.5 mg/ml, added and incubated for 4 hrs at 37° C., 5% CO2. During this incubation time purple formazan crystals are formed. After addition of the solubilization solution (20% Sodium Dodecyl Sulfate (SDS) in 0.02 M HCl) the plates were incubated overnight at 37° C., 5% CO2. After careful mixing plates were measured in Victor 2 scanning multiwell spectrophotometer (Wallac) at 550 nm.
# A decrease in number of living cells results in a decrease in the total metabolic activity in the sample. The decrease directly correlates to the amount of purple color resulting from the solubilization of the purple formazan crystals.
# • A549: 900 cells in 60 μl per well of 384 well plate (Greiner) • Medium: RPMI 1640, 2.5% FCS, glutamine, Pen/Strep. • Incubate 1 day at 37° C.
# Induction: • Dilution of compound in DMSO: 3 μl 10 mM+27 μl DMSO, dilute 1:3 • Add 2 μl of compound dilution row to 95 μl of medium • Add 10 μl of compound dilution to 60 μl medium in test plate resulting in 0.3% DMSO per well • Incubate 120 h (5 days) at 37° C., 5% CO2
# Analysis: • Add 7 μl MTT (5 mg/7 ml/well), incubate 4 h at 37° C. • Add 30 μl lysis buffer (20% SDS, 0.04 N HCl) per well • Incubate overnight at 37° C.
# Measurement: • Victor 2 scanning multiwell spectrophotometer (Wallac) at 550 nm
# Determination of IC50 was done using XL-fit (XLfit software (ID Business Solution Ltd., Guilford, Surrey, UK)).
IC50 (A549 cells),Compound,Tumor Growth Inhibition (TGI) (A549-Cell-Xenograft)
7 nM,"Cn1nncc1CCCCc1ccc(OCc2coc(/C=C/c3ccc(OC(F)(F)F)cc3)n2)cc1 [Example 1.2, Methyl-5-[4-(4-{2-[(E)-2-(4-trifluoromethoxy-phenyl)-vinyl]-oxazol-4-ylmethoxy}-phenyl)-butyl]-1H-[1,2,3]triazole]",50%
,"Cc1cc(OCc2coc(/C=C/c3ccc(OC(F)(F)F)cc3)n2)ccc1CCCCc1cnn(C)n1 [Example 3.2, 2-Methyl-4-[4-(2-methyl-4-{2-[(E)-2-(4-trifluoromethoxy-phenyl)-vinyl]-oxazol-4-ylmethoxy}-phenyl)-butyl]-2H-[1,2,3]triazole]",72%
